Earlier results in patent US20230158012A1, “ORAL LIQUID FORMULATIONS OF LENVATINIB” (SHILPA MEDICARE LIMITED, priority 2020, published 2023).

Conditions: 5% w/w aqueous solution or suspension

SMILES | pH value
NCC(=O)O [glycine] | 6.17
O=C([O-])[O-].[Na+].[Na+] [sodium carbonate] | 11.45
O=P([O-])([O-])O.[Na+].[Na+] [disodium hydrogenphosphate] | 9.26
O=P([O-])([O-])O.[K+].[K+] [dipotassium hydrogenphosphate] | 9.11
O=C([O-])O.[Na+] [sodium hydrogencarbonate] | 8.15
O=C([O-])CC(O)(CC(=O)[O-])C(=O)[O-].[Na+].[Na+].[Na+] [sodium citrate] | 8.22
O=C1O[C@H](CO)[C@@H](O)[C@H](O)[C@H]1O [Gluconolactone] | 2.40
[O]=[Mg] [magnesium oxide] | 10.63
CC(=O)[O-].[Na+] [sodium acetate] | 8.46
[Na+].[OH-] [sodium hydroxide] | 13.56
